Patent US20080171773A1, “FACTOR Xa INHIBITOR” (Pfizer Inc, priority 2006, published 2008)

Biological target: T1, human factor Xa (Homo sapiens, UniProt P00742)
T1 construct: factor Xa, a serine protease that occupies a pivotal position in the coagulation cascade
Assay: Factor Xa inhibitory activity: inhibition of human factor Xa cleavage of substrate S-2765
Assay type: biochemical
Settings: 30 pM human factor Xa, substrate S-2765 at its Km, pH 7.4, 37° C.; mean of replicates (SD, SEM and n in separate columns)
Description: The ability of compounds to act as inhibitors of human factor Xa catalytic activity can be assessed by determination of the concentration of test substance that inhibits by 50% (IC50) the ability of human factor Xa to cleave the chromogenic substrate S2765 (N-CBz-D-Arg-L-Gly-L-Arg-p-nitroanilide. 2HCl).
The assay was performed in triplicate using a final concentration of 30 pM of human factor Xa (diluted in buffer containing 10 mM HEPES, 150 mM NaCl, 0.1% bovine serum albumin (BSA), pH 7.4). The substrate, S-2765 (N-CBz-D-Arg-L-Gly-L-Arg-p-nitroanilide, 2HCl), was run at a final concentration equal to its Km value. The (R) enantiomer was serially diluted in 100% DMSO (final assay concentration=2% DMSO) to final concentrations of 1.0 μM to […]. Dilutions were transferred to a black polystyrene 96-plate microtiter assay plate at a volume of 2.5 μL/well. […] The reactions were initiated by the addition of 50 μL of pre-warmed substrate and immediately placed in the microplate reader pre-warmed at 37° C.
A fluorometric plate reader was used to continuously monitor the rate of change in relative fluorescence units (RFUS) per unit time. The assay plate was mixed once before reading. The fluorogenic emission was read every 44 seconds for 30 minutes (excitation/emission of λex=390 nm and λex=460 nm; automatic cutoff=455 nm) at 37° C.

T1 sequence (P00742 235-488 limits assumed): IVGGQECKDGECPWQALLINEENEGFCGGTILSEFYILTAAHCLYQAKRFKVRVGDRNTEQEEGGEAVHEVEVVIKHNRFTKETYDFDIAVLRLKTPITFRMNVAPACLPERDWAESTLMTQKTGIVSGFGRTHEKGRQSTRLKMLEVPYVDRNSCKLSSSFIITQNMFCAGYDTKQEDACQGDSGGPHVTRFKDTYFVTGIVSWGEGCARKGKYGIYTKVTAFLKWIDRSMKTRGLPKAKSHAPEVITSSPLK
T1 sequence (P00742 41-179 partner limits assumed): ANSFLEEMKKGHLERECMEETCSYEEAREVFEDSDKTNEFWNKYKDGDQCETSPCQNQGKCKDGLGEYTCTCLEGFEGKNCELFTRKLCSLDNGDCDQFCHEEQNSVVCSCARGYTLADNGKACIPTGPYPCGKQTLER

IC50	SMILES
0.982 nM	C[C@]1(C(=O)Nc2ccc(-n3ccccc3=O)cc2F)CC=NN1C(=O)Nc1ccc(Cl)cc1 [(R) enantiomer, (R)-5-Methyl-4,5-dihydro-pyrazole-1,5-dicarboxylic acid 1-[(4-chloro-phenyl)-amide] 5-{[2-fluoro-4-(2-oxo-2H-pyridin-1-yl)-phenyl]-amide}]
141 nM	C[C@@]1(C(=O)Nc2ccc(-n3ccccc3=O)cc2F)CC=NN1C(=O)Nc1ccc(Cl)cc1 [(S) enantiomer, (S)-5-Methyl-4,5-dihydro-pyrazole-1,5-dicarboxylic acid 1-[(4-chloro-phenyl)-amide] 5-{[2-fluoro-4-(2-oxo-2H-pyridin-1-yl)-phenyl]-amide}]
